Source: US5021421A, “2-(1-Piperazinyl)-4-phenylcycloalkanopyridine derivatives, processes for the production thereof, and pharmaceutical composition containing the same” (Dainippon Pharmaceutical Co., Ltd., priority 1989, dated 1991)
Where two headings read alike, the source gives them in different places.

Key:
adrenaline (α1) receptor = test: In vitro binding to adrenaline (α1) receptor, [3H] WB-4101; set-up: species or system rats; conditions: [3H] WB-4101, rat brain crude synaptosome fraction
Method: (§1) Dopamine (D2), serotonin (S1, S2) and adrenaline (α1) receptor binding assays were carried out according to the methods of I. Creese et al. [Eur. J. Pharmacol., 46, 377 (1977), S. J. Peroutka et al. [Mol. Pharmacol. 16, 687 (1979)], J. E. Leysen et al. [Mol. Pharmacol., 21, 301 (1982)] and D. C. U'Prichard et al. [Mol. Pharmacol., 13, 454 (1977)], respectively.
(§2) Crude synaptosome fractions were prepared from some brain regions in rats for receptor sources. Radioactive ligands used were [^3 H] spiperone (D2), [^3 H] serotonin (S1), [^3 H] ketanserin (S2) and [^3 H] WB-4101 (α1). The binding assay was performed by incubating aliquots of synaptosome fraction in buffer solution (final volume: 1 ml) containing a [^3 H] labelled ligand and a test compound. The assay was terminated by rapid filtration through Whatman GF/B glass fiber filters attached to a cell-harvester (Brandel) and radioactivity on the filters was counted in a Packard Triscarb scintillation counter. Specific binding was calculated as a difference between amounts of radioactivity in the presence and absence of an unlabelled ligand [spiperone (D2), serotonin (S1), methysergide (S2) and prazosin (α1)]. The IC50 value of the test compounds (concentration causing 50% inhibition of [^3 H] ligand specific binding) was determined by probit analysis.

[1] = system: apomorphine-induced vomiting; test: Antagonistic effect on apomorphine-induced vomiting; format: in vivo, dogs (Beagle)
Summary of the method: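 Beagle dogs (8–15 kg, 3–4 per group) received test compound, then 0.3 mg/kg apomorphine hydrochloride s.c. two hours later. Vomiting episodes counted over 1 h; percent inhibition calculated against a non-dosed control group.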

serotonin (S2) receptor = target: T1, serotonin (S2) receptor (Rattus norvegicus, UniProt P14842); test: In vitro binding to serotonin (S2) receptor, [3H] ketanserin; set-up: species or system rats; conditions: for IC50: [3H] ketanserin, rat brain crude synaptosome fraction
T1 construct: Crude synaptosome fractions were prepared from some brain regions in rats for receptor sources; from tissue
T1 sequence (P14842 whole entry): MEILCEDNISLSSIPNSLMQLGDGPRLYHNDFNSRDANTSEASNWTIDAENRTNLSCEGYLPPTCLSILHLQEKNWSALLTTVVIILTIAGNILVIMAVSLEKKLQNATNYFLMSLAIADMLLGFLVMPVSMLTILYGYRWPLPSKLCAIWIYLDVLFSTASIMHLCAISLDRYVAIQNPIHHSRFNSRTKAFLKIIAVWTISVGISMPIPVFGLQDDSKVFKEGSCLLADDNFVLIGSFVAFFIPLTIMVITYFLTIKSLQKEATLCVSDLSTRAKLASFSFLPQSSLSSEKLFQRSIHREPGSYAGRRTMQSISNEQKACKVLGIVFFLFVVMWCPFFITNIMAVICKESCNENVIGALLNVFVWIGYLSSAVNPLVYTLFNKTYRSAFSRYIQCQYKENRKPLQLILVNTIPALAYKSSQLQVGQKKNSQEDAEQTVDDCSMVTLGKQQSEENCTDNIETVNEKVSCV
Method: as §1, §2

[2] = Psychotropic / anti-psychotic (neuroleptic) activity, general statement; conditions: experiments by the present inventors
dopamine (D2) receptor = target: T2, dopamine (D2) receptor (Rattus norvegicus, UniProt P61169); test: In vitro binding to dopamine (D2) receptor, [3H] spiperone; set-up: species or system rats; conditions: for IC50: [3H] spiperone, rat brain crude synaptosome fraction, read-out: IC50 D2
T2 construct: Crude synaptosome fractions were prepared from some brain regions in rats for receptor sources; from tissue
T2 sequence (P61169 whole entry): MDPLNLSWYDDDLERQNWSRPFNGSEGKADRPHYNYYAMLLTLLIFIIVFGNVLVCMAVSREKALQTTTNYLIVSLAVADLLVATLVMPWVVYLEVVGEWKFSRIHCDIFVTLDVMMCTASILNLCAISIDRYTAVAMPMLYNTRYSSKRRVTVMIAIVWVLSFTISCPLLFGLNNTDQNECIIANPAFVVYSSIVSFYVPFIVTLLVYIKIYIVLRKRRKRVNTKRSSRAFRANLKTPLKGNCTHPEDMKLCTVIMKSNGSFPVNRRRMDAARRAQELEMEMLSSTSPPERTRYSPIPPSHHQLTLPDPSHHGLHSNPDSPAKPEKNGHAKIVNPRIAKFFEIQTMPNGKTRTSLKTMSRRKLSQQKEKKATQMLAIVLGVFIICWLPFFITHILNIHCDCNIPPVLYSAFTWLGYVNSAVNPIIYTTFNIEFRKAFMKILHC
Method: as §1, §2

[3] = U.S. Pat. No. 4,831,034; cited from earlier work
serotonin (S1) receptor = test: In vitro binding to serotonin (S1) receptor, [3H] serotonin; set-up: species or system rats; conditions: rat brain crude synaptosome fraction
Method: as §1, §2

mice = test: Acute toxicity; format: in vivo, mice (Std-ddy strain); conditions: dose 500 mg/kg oral, 7 days observation
Excerpt: A group of 5 male mice (Std-ddy strain, 25-30 g) was used. The test compound was orally administered to the test animal in the form of a 0.5% tragacanth solution or suspension, and for 7 days after the administration of the test compound, the lethality of animals was observed.

[4] = system: brain monoamine metabolites; test: Increasing effect on concentration of brain monoamine metabolites; format: in vivo, mice (Std-ddy strain); conditions: Mus musculus, 2 h, non-dosed=100
Summary of the method: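 Male Std-ddy mice (25-30 g, n=5) decapitated 2 h after dosing; brain extracts analysed by HPLC with electrochemical detection for DOPAC, HVA, MOPEG and 5-HIAA. Values expressed as % of non-dosed controls (=100).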

[5] = read-out: 5-HIAA concentration, % of control
[6] = read-out: DOPAC concentration, % of control
[7] = read-out: HVA concentration, % of control
[8] = read-out: MOPEG concentration, % of control

## Cc1nc(N2CCN(c3ccccc3)CC2)cc(-c2ccc(F)cc2)c1-c1ccc(F)cc1 [Test Compound A, 4,5-Bis-(4-fluorophenyl)-6-methyl-2-(4-phenylpiperazino)pyridine, reference compound]
Adrenaline (α1) receptor
  IC50: > 10000 nM
[1]; Canis lupus familiaris, sc, 2 h, read-out: Inhibitory ratio (apomorphine-induced vomiting)
  inhibition in vivo at 3 mg/kg: 11%
[1]; dog, in vivo
  effect on apomorphine-induced vomiting (in words): no inhibitory effect
Serotonin (S2) receptor
  binding property to serotonin (S2) receptors (in words): no binding property
  IC50: > 10000 nM
[2]
  psychotropic activity: did not show any psychotropic activity
Dopamine (D2) receptor
  binding property to dopamine (D2) receptors (in words): no binding property
  IC50: > 10000 nM

## Cc1ccc(CN2CCN(c3cc(-c4ccccc4)ccn3)CC2)cc1 [2-[4-(4-methylbenzyl)-1-piperazinyl]-4-phenylpyridine]
[3]
  activity as an anti-psychotic drug or as a neuroleptic drug: weak activity

## CCN1CCN(c2cc(-c3ccc(F)cc3)c3c(n2)CCCCC3)CC1 [Example 25, 2-(4-Ethyl-1-piperazinyl)-4-(4-fluorophenyl)-6,7,8,9-tetrahydro-5H-cyclohepta[b]pyridine]
Serotonin (S1) receptor
  IC50: 2600 nM
Adrenaline (α1) receptor
  IC50: 120 nM
[1]; Canis lupus familiaris, sc, dose 3.0 mg/kg, apomorphine 0.3 mg/kg s.c. 2 h after compound, read-out: Inhibitory ratio (apomorphine-induced vomiting)
  inhibition in vivo at 3 mg/kg: 100%
mice
  Number of dead animals / Number of test animals: 0/5
Serotonin (S2) receptor
  IC50: 2.3 nM
Dopamine (D2) receptor
  IC50: 77 nM
[4]; [5]
  response vs control in vivo at 1 mg/kg: 113%
[4]; [6]
  response vs control in vivo at 1 mg/kg: 272%
[4]; [7]
  response vs control in vivo at 1 mg/kg: 207%
[4]; [8]
  response vs control in vivo at 1 mg/kg: 106%

## CCN1CCN(c2cc(-c3ccc(F)cc3)c3c(n2)CCC3)CC1 [Example 6, 2-(4-Ethyl-1-piperazinyl)-4-(4-fluorophenyl)-6,7-dihydro-5H-1-pyrindine]
Serotonin (S1) receptor
  IC50: 1500 nM
Adrenaline (α1) receptor
  IC50: 6.9 nM
[1]; Canis lupus familiaris, sc, dose 1.0 mg/kg, apomorphine 0.3 mg/kg s.c. 2 h after compound, read-out: Inhibitory ratio (apomorphine-induced vomiting)
  inhibition in vivo at 1 mg/kg: 89%
mice
  Number of dead animals / Number of test animals: 0/5
Serotonin (S2) receptor
  IC50: 7.6 nM
Dopamine (D2) receptor
  IC50: 19 nM
[4]; [5]
  response vs control in vivo at 10 mg/kg: 103%
[4]; [6]
  response vs control in vivo at 10 mg/kg: 321%
[4]; [7]
  response vs control in vivo at 10 mg/kg: 242%
[4]; [8]
  response vs control in vivo at 10 mg/kg: 115%
